The record followed here is ChEMBL document CHEMBL1141883 (J Med Chem, 2005).

Assay [1] has as its target Cyclin-dependent kinase 1/cyclin B (Homo sapiens, UniProt P06493). Description: Inhibition of cyclin-dependent kinase 1/cyclinB. It counts as protein-complex assay.
Assay [2] deals with Cyclin-dependent kinase 6 (Homo sapiens, UniProt Q00534). Description: Inhibition of human cyclin-dependent kinase 6 complex with a virus-encoded cyclin from herpesvirus saimiri (Vcyclin).
Assay [3] addresses Cyclin-dependent kinase 5/CDK5 activator 1 (Homo sapiens, UniProt Q00535). Description: Inhibition of Cyclin-dependent kinase 5-p25nck5a. It counts as protein-complex assay.
In assay [4] the target is Glycogen synthase kinase-3 (Homo sapiens, UniProt P49840+P49841). Description: Inhibition of glycogen synthase kinase 3. It counts as protein assay.

Some results are limits rather than exact numbers.

Cyclin-dependent kinase 6, sequence (Q00534 whole entry): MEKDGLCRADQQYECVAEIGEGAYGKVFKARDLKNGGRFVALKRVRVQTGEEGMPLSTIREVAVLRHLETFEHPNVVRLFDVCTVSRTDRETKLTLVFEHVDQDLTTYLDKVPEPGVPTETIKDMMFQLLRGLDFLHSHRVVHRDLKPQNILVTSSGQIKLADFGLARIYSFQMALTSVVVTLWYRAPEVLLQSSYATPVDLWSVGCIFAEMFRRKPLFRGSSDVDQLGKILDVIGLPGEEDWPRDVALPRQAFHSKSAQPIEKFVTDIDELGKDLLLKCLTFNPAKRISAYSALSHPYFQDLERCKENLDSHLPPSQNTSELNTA
Cyclin-dependent kinase 5/CDK5 activator 1, sequence (Q00535 whole entry): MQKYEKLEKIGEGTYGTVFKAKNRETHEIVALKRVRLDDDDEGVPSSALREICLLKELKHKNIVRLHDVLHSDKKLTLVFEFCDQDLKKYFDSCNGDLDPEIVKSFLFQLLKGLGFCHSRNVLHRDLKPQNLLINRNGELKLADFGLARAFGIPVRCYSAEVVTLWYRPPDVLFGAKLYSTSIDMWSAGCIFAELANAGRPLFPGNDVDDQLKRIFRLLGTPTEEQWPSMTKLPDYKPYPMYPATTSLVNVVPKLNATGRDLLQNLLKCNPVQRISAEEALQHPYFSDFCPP
Cyclin-dependent kinase 5/CDK5 activator 1, sequence (Q15078 whole entry, further chain): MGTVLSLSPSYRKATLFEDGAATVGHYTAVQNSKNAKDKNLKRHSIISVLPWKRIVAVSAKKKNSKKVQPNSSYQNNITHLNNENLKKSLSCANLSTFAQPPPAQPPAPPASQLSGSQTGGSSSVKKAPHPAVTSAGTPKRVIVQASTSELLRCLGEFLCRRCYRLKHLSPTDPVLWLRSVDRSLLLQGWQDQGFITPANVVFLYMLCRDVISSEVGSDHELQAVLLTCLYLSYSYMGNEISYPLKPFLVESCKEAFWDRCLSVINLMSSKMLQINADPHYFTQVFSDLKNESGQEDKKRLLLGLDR

Usually IC50 stands for the point on the concentration scale where inhibition reaches its midpoint. A higher IC50 goes with weaker potency. Consider `O=c1cc(-c2ccc(O)cc2)oc2cc(O)cc(O)c12` [APIGENIN], for which the half-inhibitory concentration (IC50) in assay [1] came out at 4 µM; in assay [2], 1.7 µM; in assay [3], 1.6 µM; in assay [4], 1.4 µM.
On the same counts, the results for `O=c1cc(-c2ccccc2)oc2cc(O)cc(O)c12` [CHRYSIN] are 7.1 µM, 6 µM, 3.1 µM and 7.2 µM.
As for `O=c1c(O)c(-c2ccc(O)c(O)c2)oc2cc(O)ccc12` [FISETIN], the figures for the IC50 in assay [1], in assay [3] and in assay [4] were 0.79 µM, 0.57 µM and 0.42 µM, respectively.
In the case of `O=c1c(O)c(-c2ccc(O)cc2)oc2cc(O)cc(O)c12` [KAEMPFEROL], the IC50 in assay [1] was 41 µM; in assay [2], 22 µM; in assay [3] it was 51 µM; in assay [4], 3.5 µM.
With `O=c1cc(-c2ccc(O)c(O)c2)oc2cc(O)cc(O)c12` [LUTEOLIN], the IC50 was over 300 µM in assay [2], 3.8 µM in assay [3] and 0.8 µM in assay [4].
Regarding `O=c1c(O)c(-c2ccc(O)c(O)c2)oc2cc(O)cc(O)c12` [QUERCETIN], the IC50 came out at 75 µM in assay [1], 25 µM in assay [2] and 2.1 µM in assay [4].
